The source of these data is the supplement of paper PMC10307832.

What all share (test): relative viability (nuclei count vs DMSO), 5 days (fraction); higher = more cells survive
Compound in the experiment “MLN4924 + AZD7762”: NS(=O)(=O)OC[C@@H]1C[C@@H](n2ccc3c(N[C@H]4CCc5ccccc54)ncnc32)C[C@@H]1O [MLN4924] + NC(=O)Nc1cc(-c2cccc(F)c2)sc1C(=O)N[C@H]1CCCNC1 [AZD7762] (partner 0.2 µM)
The gist of the method: (§1)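 Lung cancer cell lines, seeded in 1536-well plates, were treated the following day by pin tool with a single drug or with five library-drug doses (not always all listed) in √10 steps on top of a fixed anchor-drug dose. Cells were fixed and nuclei stained in one step after 5 days, and nuclei were counted. Relative viability is the nuclei count for treated wells divided by that for vehicle wells, reported as medians of duplicate plates.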

Compound in the experiment “MLN4924 + Trametinib”: NS(=O)(=O)OC[C@@H]1C[C@@H](n2ccc3c(N[C@H]4CCc5ccccc54)ncnc32)C[C@@H]1O [MLN4924] + CC(=O)Nc1cccc(-n2c(=O)n(C3CC3)c(=O)c3c(Nc4ccc(I)cc4F)n(C)c(=O)c(C)c32)c1 [Trametinib] (partner 0.02 µM)
In a few lines: as §1

Compound in the experiment “Carboplatin + Pictilisib”: C1CC(C1)(C(=O)O)C(=O)O.[NH2-].[NH2-].[Pt+2] [Carboplatin] + CS(=O)(=O)N1CCN(Cc2cc3nc(-c4cccc5[nH]ncc45)nc(N4CCOCC4)c3s2)CC1 [Pictilisib] (partner 1 µM)
The gist of the method: as §1

Compound in the experiment “MLN4924 + Palbociclib”: NS(=O)(=O)OC[C@@H]1C[C@@H](n2ccc3c(N[C@H]4CCc5ccccc54)ncnc32)C[C@@H]1O [MLN4924] + CC(=O)c1c(C)c2cnc(Nc3ccc(N4CCNCC4)cn3)nc2n(C2CCCC2)c1=O [Palbociclib] (partner 0.5 µM)
In a few lines: as §1

For the cell line HCC-366, the relative viability was determined as 0.312 with MLN4924 + AZD7762 (first compound 0.04 µM); 0.56 in the experiment with MLN4924 + AZD7762 (first compound 0.1265 µM); 0.526 with MLN4924 + AZD7762 (first compound 0.4 µM); 0.297 in the experiment with MLN4924 + AZD7762 (first compound 1.265 µM); 0.0472 in the experiment with MLN4924 + AZD7762 (first compound 4 µM); 0.369 with MLN4924 + Trametinib (first compound 0.04 µM). The relative viability with MLN4924 + Trametinib (first compound 0.1265 µM) was determined as 0.376; in the experiment with MLN4924 + Trametinib (first compound 0.4 µM), 0.514; in the experiment with MLN4924 + Trametinib (first compound 1.265 µM) it was 0.305; with MLN4924 + Trametinib (first compound 4 µM), 0.0404; with Carboplatin + Pictilisib (first compound 0.08 µM) it was 0.138; with Carboplatin + Pictilisib (first compound 0.253 µM), 0.128. Further, the relative viability turned out to be 0.0961 in the experiment with Carboplatin + Pictilisib (first compound 0.8 µM); 0.158 with Carboplatin + Pictilisib (first compound 2.53 µM); 0.106 in the experiment with Carboplatin + Pictilisib (first compound 8 µM); 0.389 with MLN4924 + Palbociclib (first compound 0.04 µM); 0.374 with MLN4924 + Palbociclib (first compound 0.1265 µM); 0.336 in the experiment with MLN4924 + Palbociclib (first compound 0.4 µM). Besides, the relative viability with MLN4924 + Palbociclib (first compound 1.265 µM) turned out to be 0.167; with MLN4924 + Palbociclib (first compound 4 µM) it was 0.0328.
On to HCC-827, for which the relative viability was determined as 0.687 with MLN4924 + AZD7762 (first compound 0.04 µM); 0.556 in the experiment with MLN4924 + AZD7762 (first compound 0.1265 µM); 0.374 with MLN4924 + AZD7762 (first compound 0.4 µM); 0.195 with MLN4924 + AZD7762 (first compound 1.265 µM); 0.151 with MLN4924 + AZD7762 (first compound 4 µM); 0.738 with MLN4924 + Trametinib (first compound 0.04 µM). Further, the relative viability is 0.601 in the experiment with MLN4924 + Trametinib (first compound 0.1265 µM); 0.526 with MLN4924 + Trametinib (first compound 0.4 µM); 0.193 in the experiment with MLN4924 + Trametinib (first compound 1.265 µM); 0.156 with MLN4924 + Trametinib (first compound 4 µM); 0.886 with Carboplatin + Pictilisib (first compound 0.08 µM); 0.923 with Carboplatin + Pictilisib (first compound 0.253 µM). Also, the relative viability in the experiment with Carboplatin + Pictilisib (first compound 0.8 µM) worked out at 0.79; with Carboplatin + Pictilisib (first compound 2.53 µM), 0.846; with Carboplatin + Pictilisib (first compound 8 µM) it was 0.897; in the experiment with MLN4924 + Palbociclib (first compound 0.04 µM), 0.35; in the experiment with MLN4924 + Palbociclib (first compound 0.1265 µM) it was 0.325; with MLN4924 + Palbociclib (first compound 0.4 µM), 0.317. The relative viability turned out to be 0.173 with MLN4924 + Palbociclib (first compound 1.265 µM) and 0.148 in the experiment with MLN4924 + Palbociclib (first compound 4 µM).
With HOP-62, the relative viability in the experiment with MLN4924 + AZD7762 (first compound 0.04 µM) stood at 0.438; with MLN4924 + AZD7762 (first compound 0.1265 µM) it was 0.263; with MLN4924 + AZD7762 (first compound 0.4 µM), 0.111; in the experiment with MLN4924 + AZD7762 (first compound 1.265 µM), 0.051; in the experiment with MLN4924 + AZD7762 (first compound 4 µM), 0.0648; with MLN4924 + Trametinib (first compound 0.04 µM) it was 0.432. The relative viability with MLN4924 + Trametinib (first compound 0.1265 µM) was 0.567; in the experiment with MLN4924 + Trametinib (first compound 0.4 µM), 0.369; in the experiment with MLN4924 + Trametinib (first compound 1.265 µM) it was 0.103; with MLN4924 + Trametinib (first compound 4 µM), 0.0823; with Carboplatin + Pictilisib (first compound 0.08 µM) it was 0.527; with Carboplatin + Pictilisib (first compound 0.253 µM), 0.747. The relative viability with Carboplatin + Pictilisib (first compound 0.8 µM) was 0.663; with Carboplatin + Pictilisib (first compound 2.53 µM), 0.64; with Carboplatin + Pictilisib (first compound 8 µM), 0.65; in the experiment with MLN4924 + Palbociclib (first compound 0.04 µM) it was 0.367; with MLN4924 + Palbociclib (first compound 0.1265 µM) it was 0.185; in the experiment with MLN4924 + Palbociclib (first compound 0.4 µM), 0.0998. The relative viability with MLN4924 + Palbociclib (first compound 1.265 µM) came to 0.0286; with MLN4924 + Palbociclib (first compound 4 µM), 0.0302.
Consider IA-LM, for which the relative viability with Carboplatin + Pictilisib (first compound 0.08 µM) was determined as 0.404; in the experiment with Carboplatin + Pictilisib (first compound 0.253 µM) it was 0.373; in the experiment with Carboplatin + Pictilisib (first compound 0.8 µM), 0.353; in the experiment with Carboplatin + Pictilisib (first compound 2.53 µM), 0.261; with Carboplatin + Pictilisib (first compound 8 µM) it was 0.242.
LC-2-ad: the relative viability in the experiment with MLN4924 + AZD7762 (first compound 0.04 µM) amounted to 0.376; with MLN4924 + AZD7762 (first compound 0.1265 µM), 0.9; with MLN4924 + AZD7762 (first compound 0.4 µM) it was 0.837; with MLN4924 + AZD7762 (first compound 1.265 µM), 0.376; with MLN4924 + AZD7762 (first compound 4 µM), 0.236; with MLN4924 + Trametinib (first compound 0.04 µM) it was 0.95. Also, the relative viability with MLN4924 + Trametinib (first compound 0.1265 µM) came to 0.827; with MLN4924 + Trametinib (first compound 0.4 µM) it was 0.701; with MLN4924 + Trametinib (first compound 1.265 µM) it was 0.541; in the experiment with MLN4924 + Trametinib (first compound 4 µM), 0.305; with Carboplatin + Pictilisib (first compound 0.08 µM) it was 0.669; with Carboplatin + Pictilisib (first compound 0.253 µM), 0.477. Further, the relative viability with Carboplatin + Pictilisib (first compound 0.8 µM) turned out to be 0.436; with Carboplatin + Pictilisib (first compound 2.53 µM), 0.447; in the experiment with Carboplatin + Pictilisib (first compound 8 µM), 0.399; in the experiment with MLN4924 + Palbociclib (first compound 0.04 µM), 0.443; with MLN4924 + Palbociclib (first compound 0.1265 µM) it was 0.427; in the experiment with MLN4924 + Palbociclib (first compound 0.4 µM), 0.432. In addition, the relative viability was found to be 0.233 with MLN4924 + Palbociclib (first compound 1.265 µM) and 0.196 with MLN4924 + Palbociclib (first compound 4 µM).
